PMC3261141, “Largazole and Its Derivatives Selectively Inhibit Ubiquitin Activating Enzyme (E1)” (PLoS ONE, 2012)

Key:
[1] = target: T1, ubiquitin-activating enzyme E1 (UBA1) (Homo sapiens, UniProt P22314); test: E1-ubiquitin thioester gel assay with fluorescein-ubiquitin; format: biochemical
T1 construct: recombinant human UBA1, GST tag removed by thrombin
T1 sequence (P22314 2-1058): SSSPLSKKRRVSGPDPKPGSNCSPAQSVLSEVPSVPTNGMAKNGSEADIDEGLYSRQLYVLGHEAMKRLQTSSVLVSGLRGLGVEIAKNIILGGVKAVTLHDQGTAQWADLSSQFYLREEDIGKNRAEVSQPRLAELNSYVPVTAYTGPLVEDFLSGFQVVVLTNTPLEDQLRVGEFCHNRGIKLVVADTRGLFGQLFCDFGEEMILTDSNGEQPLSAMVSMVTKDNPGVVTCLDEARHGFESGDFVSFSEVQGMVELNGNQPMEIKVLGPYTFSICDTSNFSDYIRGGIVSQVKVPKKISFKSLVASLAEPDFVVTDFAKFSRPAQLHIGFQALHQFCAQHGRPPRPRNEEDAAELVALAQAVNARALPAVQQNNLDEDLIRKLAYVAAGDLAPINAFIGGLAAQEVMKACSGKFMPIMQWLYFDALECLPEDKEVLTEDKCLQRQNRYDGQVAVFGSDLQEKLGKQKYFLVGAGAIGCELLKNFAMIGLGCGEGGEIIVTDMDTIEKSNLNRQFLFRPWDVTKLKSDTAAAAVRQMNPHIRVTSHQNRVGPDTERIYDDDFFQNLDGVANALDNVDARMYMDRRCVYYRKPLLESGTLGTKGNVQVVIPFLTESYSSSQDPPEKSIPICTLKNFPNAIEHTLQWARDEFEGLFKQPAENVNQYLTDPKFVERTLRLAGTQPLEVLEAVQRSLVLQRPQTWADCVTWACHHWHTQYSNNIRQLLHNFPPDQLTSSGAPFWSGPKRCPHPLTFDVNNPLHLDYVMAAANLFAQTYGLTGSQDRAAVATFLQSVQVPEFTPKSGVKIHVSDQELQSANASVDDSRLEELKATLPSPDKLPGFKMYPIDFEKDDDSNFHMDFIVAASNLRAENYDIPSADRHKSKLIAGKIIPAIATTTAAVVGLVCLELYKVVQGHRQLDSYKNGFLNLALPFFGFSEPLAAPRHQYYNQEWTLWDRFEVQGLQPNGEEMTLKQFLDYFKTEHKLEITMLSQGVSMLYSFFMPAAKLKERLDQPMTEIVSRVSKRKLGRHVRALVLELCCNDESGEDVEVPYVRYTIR

[2] = target: T1, ubiquitin-activating enzyme E1 (UBA1); test: thioester gel assay; PPi:ATP and AMP:ATP exchange assays; format: biochemical

## CCCCCCCC(=O)SCC/C=C/[C@@H]1CC(=O)NCc2nc(cs2)C2=N[C@@](C)(CS2)C(=O)N[C@@H](C(C)C)C(=O)O1 [L, Largazole]
[1]
  IC50: ~29 µM

## CCCCCCCC(=O)CCC/C=C/[C@@H]1CC(=O)NCc2nc(cs2)C2=N[C@@](C)(CS2)C(=O)N[C@@H](C(C)C)C(=O)O1 [K, Largazole ketone]
[2]
  IC50: ~30 µM

## CCCCCCCC(=O)OCC/C=C/[C@@H]1CC(=O)NCc2nc(cs2)C2=N[C@@](C)(CS2)C(=O)N[C@@H](C(C)C)C(=O)O1 [E, Largazole ester]
[1]
  IC50: ~25 µM
